Experimental data: patent US20230242499A1, “COMPOUND OR SALT THEREOF, COMPOSITION, CHEMILU[…], METHOD FOR MEASURING CHEMILU[…], REAGENT, REAGENT KIT, AND METHOD FOR ASSAYING ANALYTE” (SYSMEX CORPORATION, priority 2022, published 2023)

What was measured:
alkaline phosphatase = experiment: Test Example 2: chemiluminescence intensity versus amount of alkaline phosphatase, limit of detection; assay type: biochemical; settings: 42° C., 5 minutes incubation
Description: A solution of 1,2-dioxetane derivative (Examples 1 to 4) in dimethyl sulfoxide was added to 155 μL of the reaction liquid, and the mixture was kept at 42° C. for one hour. Twenty μL of a solution containing alkaline phosphatase was added, the mixture was incubated at 42° C. for 5 minutes, and then the chemiluminescence intensity was measured. The reaction liquid used herein was a 2: 1 mixture of a buffer solution (pH 9.6) that contains magnesium chloride and Sapphire-II™ Enhancer (from Thermo Fischer Scientific Inc.), and HISCL R4 reagent (from Sysmex Corporation). In Example 3, two types of sample were prepared, a sample (S(+)) with Sapphire-II™ Enhancer added thereto, and a sample […] without such additive.

[1] = Test Example 3: maximum emission wavelength by spectrofluorometer; assay type: physicochemical; settings: after several hours under the conditions of Test Example 1; spectrofluorometer F-7000
Description: After a lapse of several hours under the conditions of Test Example 1, the samples were measured with use of a spectrofluorometer F-7000 (from Hitachi High-Tech Science Corporation), to find maximum emission wavelength.

[2] = buffer pH 9.6 with magnesium chloride and Sapphire-II Enhancer added (S (+)), HISCL R4 reagent

Q: What does the source list for `COC1(c2ccc(C#Cc3ccc(C(=O)O)cc3)c(OP(=O)(O)O)c2)OOC12C1CC3CC2CC(Cl)(C3)C1` (stereo not drawn) [Example 1]?
A: LOD (zmol) (alkaline phosphatase; [2]): 10 zmol; Maximum emission wavelength (nm) [1]: 498 nm

Q: Which “LOD (zmol)” value (alkaline phosphatase; [2]) does the source give for `C#Cc1ccc(C2(OC)OOC23C2CC4CC3CC(Cl)(C4)C2)cc1OP(=O)(O)O` (stereo not drawn) [Example 2] here?
A: Its value is 4 zmol.

Q: And the “Maximum emission wavelength (nm)” value [1]?
A: The value was 468 nm.

Q: For `COC1(c2ccc(C#CC(=O)O)c(OP(=O)(O)O)c2)OOC12C1CC3CC2CC(Cl)(C3)C1` (stereo not drawn) [Example 3], which “LOD (zmol)” value (alkaline phosphatase; Sapphire-II Enhancer not added (S (−))) is on record?
A: Its value is 1 zmol.

Q: What about the “LOD (zmol)” value (alkaline phosphatase; [2]) of the same compound?
A: The value was 7 zmol.

Q: And the “Maximum emission wavelength (nm)” value [1]?
A: The value was 475 nm.

Q: With `COC1(c2ccc(-c3ccc(C(=O)O)cc3)c(OP(=O)(O)O)c2)OOC12C1CC3CC2CC(Cl)(C3)C1` (stereo not drawn) [Example 4] as the compound, how does the “LOD (zmol)” value (alkaline phosphatase; [2]) read?
A: Its value is 100 zmol.

Q: What about the “Maximum emission wavelength (nm)” value [1] of the same compound?
A: The value was 493 nm.
